{"source": "paper PMC12064818", "about": "“A general assay platform to study protein pharmacology using ligand-dependent structural dynamics” (Nature Communications, 2025)", "key": {"C. elegans iPGM-C-HiBiT": {"molecular_target": "C. elegans iPGM-C-HiBiT (Caenorhabditis elegans, UniProt G5EFZ1)", "sequence (G5EFZ1 2-539)": "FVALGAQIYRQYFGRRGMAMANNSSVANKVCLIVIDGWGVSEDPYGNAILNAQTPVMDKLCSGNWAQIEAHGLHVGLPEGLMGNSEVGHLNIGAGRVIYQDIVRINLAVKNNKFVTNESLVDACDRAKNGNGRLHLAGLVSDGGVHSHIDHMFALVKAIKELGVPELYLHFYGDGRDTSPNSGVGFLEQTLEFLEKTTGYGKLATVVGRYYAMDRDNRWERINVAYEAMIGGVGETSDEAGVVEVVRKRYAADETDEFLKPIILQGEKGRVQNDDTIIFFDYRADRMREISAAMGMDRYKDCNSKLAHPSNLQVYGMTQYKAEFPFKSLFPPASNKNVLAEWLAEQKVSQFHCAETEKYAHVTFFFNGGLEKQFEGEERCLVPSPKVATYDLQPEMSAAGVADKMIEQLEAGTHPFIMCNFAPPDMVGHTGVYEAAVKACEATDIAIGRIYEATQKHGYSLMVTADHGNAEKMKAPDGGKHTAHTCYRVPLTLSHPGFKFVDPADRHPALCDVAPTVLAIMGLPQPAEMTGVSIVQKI", "experiment": "iPGM coupled-enzyme assay, C. elegans iPGM-C-HiBiT", "format": "biochemical", "design": "cDNA, containing Phe2-Ile539 and the 6xHis tag; His6 (C); made in house; host or cells: E. coli", "details": "C. elegans iPGM-C-HiBiT Std 5 nM; ligand […] Std", "method": "The enzyme activity of C. elegans or B. malayi iPGM-C-HiBiT was measured using the functional coupled-enzyme luminescence end-point output assay for iPGM as previously described[16],[41],[68]. Briefly, the indicated concentration of 4 μL of iPGM-C-HiBiT was dispensed into 1536-well white, high solid base, medium bind plates in a pH 8.0 iPGM assay buffer (30 mM Tris-HCl, 5 mM magnesium sulfate, 20 mM potassium chloride and 0.08% BSA) with the BioRaptr 2. Compounds and controls were added to each plate with a pintool as described in Supplementary Data 8. Enzymes were incubated with peptide for > 20 min at ambient temperature, protected from light. […] Enzyme was at 5 nM final concentration for the standard assay with an estimated KM 3-phosphoglycerate (3PG) substrate concentration of 400 μM. Plates were incubated at ambient temperature for 10 min, protected from light, then measured by a ViewLux plate reader. […] See Supplementary Table 6 for additional details.\nSupplementary Table 6. Protocol for Co- factor independent phosphoglycerate mutase (iPGM) coupled-enzyme assay\nSupplementary Table 6: Protocol for Co-factor independent phosphoglycerate m utase (iPGM) coupled- enzym e assay […]\nNo enzym e control (colum n 1) and enzym e solutions (5 nM Bm iPGM-C-HiBiT or Ce iPGM-1 Reagent 4 µLC-HiBiT dialyzed against Zn/Mn final assay concentration) in PGM enzym e buffer; white/solid bottom , m edium bind, high base plates (Greiner), dispensed with BioRaptr 2 […]\nin 8-pt 1:6 titration series in duplicate); com pounds transferred to respective colum ns with […]\nTest com pounds: m acrocyclic peptides at 5 m M stock concentration in 16-pt, 1:3 titration […]\ntransferred to respective colum ns with Pintool\n3 Incubation 20 m inIncubate enzym e + com pounds at am bient tem p for 20 m in, protected from light 4 Reagent 2 µLSubstrate solution; 0.4 m M final concentration 3PG in coupled-enzym e substrate buffer; dispensed with BioRaptr 2\n5 Incubation 5 m inAm bient tem perature, protected from light\n6 Reagent 4 µLKinase-Glo Plus reagent (Prom ega) prepared according to m anufacturer’s protocol;\n7 Incubation 10 m inRoom tem perature, protected from light\n8 Detector ViewLuxRead plate lum inescence (Exposure = 1 sec; Gain = Medium; Speed = Slow; Binning = 2X) […]\nin 20% glycerol); Bm iPGM-C-HiBiT enzym e 10 µM stock solution in 20% glycerol.\nCoupled-enzym e substrate solution: 30 m M Tris-HCl, pH 8.0; 5 m M MgSO4; 20 m M KCl; 9 m M ADP (3 m M final); 0.1 4 units/µl enolase (Millipore Sigm a, Cat# E6126); 0.15 units/µl pyruvate kinase (from rabbit m uscle, Millipore Sigm a, Cat #"}, "B. malayi iPGM-C-HiBiT": {"molecular_target": "B. malayi iPGM-C-HiBiT (Brugia malayi, UniProt Q4VWF8)", "sequence (Q4VWF8 2-515)": "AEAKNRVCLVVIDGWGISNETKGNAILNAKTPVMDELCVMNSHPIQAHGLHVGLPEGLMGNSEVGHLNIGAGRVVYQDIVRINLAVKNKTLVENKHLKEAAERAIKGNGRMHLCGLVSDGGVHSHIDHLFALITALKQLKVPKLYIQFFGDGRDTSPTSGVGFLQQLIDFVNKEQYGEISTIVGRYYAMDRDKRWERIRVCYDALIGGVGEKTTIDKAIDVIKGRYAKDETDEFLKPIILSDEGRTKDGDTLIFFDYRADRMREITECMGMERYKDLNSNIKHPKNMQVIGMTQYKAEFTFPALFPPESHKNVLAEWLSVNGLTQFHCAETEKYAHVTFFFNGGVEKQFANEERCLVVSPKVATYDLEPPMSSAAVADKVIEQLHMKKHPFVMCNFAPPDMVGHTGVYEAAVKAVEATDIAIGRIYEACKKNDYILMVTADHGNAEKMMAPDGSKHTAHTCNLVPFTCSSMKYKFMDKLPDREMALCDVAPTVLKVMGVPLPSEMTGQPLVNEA", "details": "B. malayi iPGM-C-HiBiT SDR 0.5 nM; ligand […] SDR"}, "[1]": {"molecular_target": "T1, T7 Lig-N-HiBiT (DNA ligase) (Escherichia phage T7, UniProt P00969)", "T1 sequence (P00969 2-359)": "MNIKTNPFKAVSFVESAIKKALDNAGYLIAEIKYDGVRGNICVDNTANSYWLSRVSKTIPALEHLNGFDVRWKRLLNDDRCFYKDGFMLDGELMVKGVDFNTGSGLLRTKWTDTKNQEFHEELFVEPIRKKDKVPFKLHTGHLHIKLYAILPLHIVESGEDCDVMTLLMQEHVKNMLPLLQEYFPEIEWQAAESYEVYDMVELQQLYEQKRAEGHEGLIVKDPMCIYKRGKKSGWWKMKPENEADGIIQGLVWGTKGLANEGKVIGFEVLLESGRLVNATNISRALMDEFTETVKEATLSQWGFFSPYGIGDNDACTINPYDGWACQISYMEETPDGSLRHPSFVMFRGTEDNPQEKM", "experiment": "SDR assay (aqueous ligand dispense), T7 Lig-N-HiBiT", "details": "for SDR assay data: 1 nM T7 Lig-N-HiBiT; for SDR assay data / SDR response: Log [ATP]; for SDR response: replicates"}, "[2]": {"molecular_target": "E. coli Lig-N-HiBiT (DNA ligase) (Escherichia coli, UniProt P15042)", "sequence (P15042 2-671)": "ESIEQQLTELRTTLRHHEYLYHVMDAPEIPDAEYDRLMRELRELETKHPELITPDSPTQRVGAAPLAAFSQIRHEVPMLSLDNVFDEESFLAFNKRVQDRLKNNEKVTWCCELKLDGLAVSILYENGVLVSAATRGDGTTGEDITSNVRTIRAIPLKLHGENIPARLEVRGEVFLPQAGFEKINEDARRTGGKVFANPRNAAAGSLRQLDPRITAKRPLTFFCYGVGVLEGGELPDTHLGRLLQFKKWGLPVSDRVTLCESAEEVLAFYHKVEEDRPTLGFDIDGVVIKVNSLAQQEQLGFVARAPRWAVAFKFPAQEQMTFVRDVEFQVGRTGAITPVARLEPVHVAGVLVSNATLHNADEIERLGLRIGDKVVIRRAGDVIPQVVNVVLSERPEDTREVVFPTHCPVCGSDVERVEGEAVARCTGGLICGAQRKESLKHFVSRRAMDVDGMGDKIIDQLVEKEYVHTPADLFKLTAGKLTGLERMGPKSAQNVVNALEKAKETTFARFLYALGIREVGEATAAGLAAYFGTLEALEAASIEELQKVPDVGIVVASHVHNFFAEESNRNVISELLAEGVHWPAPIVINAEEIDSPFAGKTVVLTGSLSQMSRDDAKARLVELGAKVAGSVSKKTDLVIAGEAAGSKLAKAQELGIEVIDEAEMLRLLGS", "experiment": "biochemical"}, "[3]": {"system": "E. coli Lig-C-HiBiT (DNA ligase)", "experiment": "SDR assay (aqueous ligand dispense), E. coli Lig-C-HiBiT", "details": "for SDR assay data: 1 nM E. coli Lig-C-HiBiT; for SDR assay data / SDR response: Log [ATP]; for SDR response: replicates"}, "[4]": {"details": "T7 Lig-N-HiBiT (1 nM), ligand 100 µM"}, "[5]": {"details": "E. coli Lig-C-HiBiT (1.0 nM), ligand 100 µM"}}, "note": "Where “and” joins values, the source holds several entries; their conditions need not be identical. Equal entries are not always repeated."}
{"smiles": "CC(C)C[C@H](NC(=O)[C@H](Cc1ccc(O)cc1)NC(=O)[C@@H]1CSCC(=O)N[C@H](Cc2ccc(O)cc2)C(=O)N[C@@H](CC(=O)O)C(=O)N[C@@H](Cc2ccc(O)cc2)C(=O)N2CCC[C@H]2C(=O)NCC(=O)N[C@@H](CC(=O)O)C(=O)N[C@@H](Cc2ccc(O)cc2)C(=O)N1)C(=O)N[C@@H](Cc1ccc(O)cc1)C(=O)NCC(=O)N[C@H](C(=O)N[C@@H](CS)C(=O)NCC(N)=O)[C@@H](C)O", "note": "[Ce-2]", "values": [{"measurement": "Standard assay statistics Ave RLU", "setting": "C. elegans iPGM-C-HiBiT", "value": 3361.1, "unit": "RLU"}, {"measurement": "Standard assay statistics S:B", "setting": "C. elegans iPGM-C-HiBiT", "value": 8.4}, {"measurement": "Standard assay statistics S:N", "setting": "C. elegans iPGM-C-HiBiT", "value": -16.5}, {"measurement": "Standard assay statistics Z’", "setting": "C. elegans iPGM-C-HiBiT", "value": 0.816}, {"measurement": "SDR assay statistics Ave RLU", "setting": "B. malayi iPGM-C-HiBiT", "value": 552.2, "unit": "RLU"}, {"measurement": "SDR assay statistics S:B", "setting": "B. malayi iPGM-C-HiBiT", "value": 1.8}, {"measurement": "SDR assay statistics S:N", "setting": "B. malayi iPGM-C-HiBiT", "value": 14.4}, {"measurement": "SDR assay statistics Z’", "setting": "B. malayi iPGM-C-HiBiT", "value": 0.702}]}
{"smiles": "Nc1ncnc2c1ncn2[C@@H]1O[C@H](COP(=O)(O)OP(=O)(O)OP(=O)(O)O)[C@@H](O)[C@H]1O", "note": "[ATP]", "values": [{"measurement": "EC50", "setting": "[1]", "value": "≥ 100", "unit": "µM"}, {"measurement": "SDR assay data", "setting": "[1]; M -2.85", "value": "436.8 and 379.9 and 405.2"}, {"measurement": "SDR assay data", "setting": "[1]; M -3.15", "value": "279.5 and 253.1 and 256.0"}, {"measurement": "SDR assay data", "setting": "[1]; M -3.45", "value": "148.4 and 136.3 and 161.1"}, {"measurement": "SDR assay data", "setting": "[1]; M -3.75", "value": "97.7 and 88.5 and 106.1"}, {"measurement": "SDR assay data", "setting": "[1]; M -4.05", "value": "63.0 and 57.2 and 69.3"}, {"measurement": "SDR assay data", "setting": "[1]; M -4.35", "value": "47.1 and 49.4 and 60.4"}, {"measurement": "SDR assay data", "setting": "[1]; M -4.65", "value": "42.9 and 27.8 and 47.0"}, {"measurement": "SDR assay data", "setting": "[1]; M -4.95", "value": "31.1 and 25.7 and 35.7"}, {"measurement": "SDR assay data", "setting": "[1]; M -5.55", "value": "21.1 and 18.2 and 32.8"}, {"measurement": "SDR assay data", "setting": "[1]; M -6.46", "value": "17.8 and 13.4 and 26.6"}, {"measurement": "SDR assay data", "setting": "[1]; M -6.76", "value": "16.5 and 24.2 and 25.4"}, {"measurement": "SDR response", "setting": "[1]; M -2.85", "value": "405.2 and 436.8 and 379.9"}, {"measurement": "SDR response", "setting": "[1]; M -3.15", "value": "256.0 and 279.5 and 253.1"}, {"measurement": "SDR response", "setting": "[1]; M -3.45", "value": "161.1 and 148.4 and 136.3"}, {"measurement": "SDR response", "setting": "[1]; M -3.75", "value": "106.1 and 97.7 and 88.5"}, {"measurement": "SDR response", "setting": "[1]; M -4.05", "value": "69.3 and 63.0 and 57.2"}, {"measurement": "SDR response", "setting": "[1]; M -4.35", "value": "60.4 and 47.1 and 49.4"}, {"measurement": "SDR response", "setting": "[1]; M -4.65", "value": "47.0 and 42.9 and 27.8"}, {"measurement": "SDR response", "setting": "[1]; M -4.95", "value": "35.7 and 31.1 and 25.7"}, {"measurement": "SDR response", "setting": "[1]; M -5.25", "value": "40.3 and 24.1 and 20.1"}, {"measurement": "SDR response", "setting": "[1]; M -5.55", "value": "32.8 and 21.1 and 18.2"}, {"measurement": "SDR response", "setting": "[1]; M -5.86", "value": "31.3 and 18.8"}, {"measurement": "SDR response", "setting": "[1]; M -6.16", "value": "32.1 and 13.9 and 17.4"}, {"measurement": "SDR response", "setting": "[1]; M -6.46", "value": "26.6 and 17.8 and 13.4"}, {"measurement": "SDR response", "setting": "[1]; M -6.76", "value": "25.4 and 16.5 and 24.2"}, {"measurement": "SDR assay response (in words)", "setting": "[1]; T7 Lig-N-HiBiT", "value": "strong SDR signal"}, {"measurement": "SDR assay statistics Ave RLU", "setting": "[1]; [4]", "value": 88.7, "unit": "RLU"}, {"measurement": "SDR assay statistics S:B", "setting": "[1]; [4]", "value": 2.0}, {"measurement": "SDR assay statistics S:N", "setting": "[1]; [4]", "value": 5.7}, {"measurement": "SDR assay statistics Z’", "setting": "[1]; [4]", "value": 0.337}, {"measurement": "max resp", "setting": "[1]; T7 Lig-N-HiBiT, maximum response", "value": 407.3}, {"measurement": "EC50", "setting": "[2]", "value": "≥ 100", "unit": "µM"}, {"measurement": "SDR assay data", "setting": "[3]; M -3.15", "value": "6.4 and 7.5 and 12.8"}, {"measurement": "SDR assay data", "setting": "[3]; M -3.75", "value": "7.0 and 9.1"}, {"measurement": "SDR assay data", "setting": "[3]; M -4.05", "value": "6.9 and 5.8 and 9.6"}, {"measurement": "SDR assay data", "setting": "[3]; M -6.76", "value": "5.3 and 6.4 and 8.6"}, {"measurement": "SDR assay statistics Ave RLU", "setting": "[3]; [5]", "value": 2214.0, "unit": "RLU"}, {"measurement": "SDR assay statistics S:B", "setting": "[3]; [5]", "value": 1.1}, {"measurement": "max resp", "setting": "[3]; E. coli Lig-C-HiBiT, maximum response", "value": 7.8}, {"measurement": "SDR response", "setting": "[3]; M -2.85", "value": "4.8 and 10.7"}, {"measurement": "SDR response", "setting": "[3]; M -3.15", "value": "6.4 and 12.8"}, {"measurement": "SDR response", "setting": "[3]; M -3.45", "value": "4.5 and 9.6"}, {"measurement": "SDR response", "setting": "[3]; M -3.75", "value": "7.0 and 9.1"}, {"measurement": "SDR response", "setting": "[3]; M -4.05", "value": "6.9 and 5.8 and 9.6"}, {"measurement": "SDR response", "setting": "[3]; M -4.35", "value": "9.4 and 4.6 and 6.2"}, {"measurement": "SDR response", "setting": "[3]; M -4.65", "value": "10.2 and 2.5"}, {"measurement": "SDR response", "setting": "[3]; M -4.95", "value": "10.5 and 2.6"}, {"measurement": "SDR response", "setting": "[3]; M -5.25", "value": "4.4 and 2.6 and 13.4"}, {"measurement": "SDR response", "setting": "[3]; M -5.55", "value": "1.7 and 7.1"}, {"measurement": "SDR response", "setting": "[3]; M -5.86", "value": 5.9}, {"measurement": "SDR response", "setting": "[3]; M -6.16", "value": "9.8 and 1.1 and 5.3"}, {"measurement": "SDR response", "setting": "[3]; M -6.46", "value": "6.3 and 0.236 and 4.6"}, {"measurement": "SDR response", "setting": "[3]; M -6.76", "value": "5.3 and 6.4"}]}
